{"source": "patent US8680076B2", "about": "“Methods of treatment, improvement and prevention using haloaryl substituted aminopurines” (Signal Pharmaceuticals, LLC, priority 2010, dated 2014)", "key": {"[1]": {"tested_on": "mice, bleomycin-induced pre-established dermal fibrosis", "assay": "Modified model of bleomycin-induced dermal fibrosis (regression of established fibrosis)", "assay_type": "in vivo, mouse", "description": "To evaluate, whether inhibition of JNK might also be effective for the treatment of established fibrosis, a modified model of bleomycin-induced dermal fibrosis was used. […] Thus, Compound JNKi-1 decreased the level of dermal thickness under the pre-treatment level (127±4% vs 175±8% compared to NaCl injections for 6 weeks, p=0.008 and p=0.021) (FIG. 7A)."}, "CD-IGS rats": {"tested_on": "CD-IGS rats", "assay": "Rat model of excisional wound healing", "assay_type": "in vivo", "method": "Male CD-IGS rats (Strain code 001; n=32-52 per experiment) were obtained from Charles River Laboratories at a body weight of 175-195 g. Rats were housed in regular shoebox cages and allowed to become acclimated for a minimum of 1 week. Rats were fed Harlan Teklad (No. 7001) 4% mouse/rat diet and water ad libitum and were maintained on a 12-hour light/dark cycle.\nSuspensions of Compound JNKi-1 were prepared in aqueous 0.5% CMC and 0.25% Tween-80. The formulations were homogenized using a TEFLON® pestle and mortar (Potter-Elvehjem tissue grinder). Vehicle (aqueous solution of 0.5% carboxymethylcellulose, and 0.25% Tween-80) and test article compounds were dosed at a volume of 5 mL/kg. Groups of rats (n=4-8/group) were dosed orally with vehicle, Dexamethasone (0.5 mg/kg) or Compound JNKi-1 (10 mg/kg, 30 mg/kg or 60 mg/kg) daily throughout the study starting 4 days prior to the procedure and continuing for up to […]. Compound JNKi-1 treated groups and the respective vehicle control group were dosed twice daily (bid) with an 8 hr separation between the doses. Dexamethasone treated animals and the respective vehicle control group were dosed once daily (qd) for the duration of the study.\nRats were anesthetized by inhaled isoflurane and the dorsal area was shaved and swabbed with 70% alcohol. Two points were marked 5.5 and 8.5 cm from the base of the skull along the midline. Four further points were marked 1 cm at either side of the midline, two at each of the marked points. These delineated the centers of four excisional wounds. The biopsy punch (6 mm diameter) was aligned vertically over the center of a mark and the epidermis, dermis and panniculus carnosus pierced by applying pressure and twisting at the same time. The skin plug was then removed. This was repeated for the remaining wounds (FIG. 15). The animal was then allowed to recover. All animals were housed singly during the experiment. Rats were monitored twice a day for the first 24 hours following the procedure and then daily until the end of the study. Body weights were recorded two or three times per week. Animals were sacrificed via CO2 asphyxiation at various time-points (day 1, 5, 10 or 14) following wounding.\nEach wound size was measured using an electronic digital caliper and the percent of wound remaining open was calculated relative to the initial wound size recorded on day 0 (day of wounding procedure). Four values were averaged for each animal (four wounds on each rat). Measurements were taken at different time-points throughout the study.\nWounds and 2 mm of surrounding tissue were excised using an 8 mm biopsy punch. Wounds were harvested on days 1, 5, 10 and 14 following the procedure. Tissues were fixed in neutral buffered formalin for 3 h then transferred to 100% ethanol. Tissues were paraffin-embedded and four μm cross sections were cut and mounted on poly-lysine slides and stored in slide boxes at room temperature.\nOne slide for each specimen was stained for H&E to assess granulation-tissue formation and re-epithelialization of the wound gap.\nSamples collected on day 10 and 14 were stained with Trichrome Stain (Masson) Kit (Sigma, HT15) to evaluate collagen deposition and remodeling.\nTissue sections were deparaffinized and hydrated to deionized (DI) water. Sections were incubated in preheated Bouin' Solution (Sigma, HT10-132) at 56° C. overnight and then thoroughly rinsed in tap water. Sections were stained in Weigert's Iron Hematoxylin solution (Sigma, HT10-79) for 15 min, washed, and counterstained with Biebrich Scarlet Acid Fuchsin solution. After washing, sections were incubated with Phosphotungstic-Phosphomolybdic acid solution for 15 min and then stained with Aniline Blue solution. Sections were dehydrated and cleared in xylene.\nWound healing was evaluated on day 10 and day 14 after the procedure. H&E sections were scored for re-epithelialization using the following criteria: […]"}, "[2]": {"conditions": "150 mg/kg for the last 3 weeks of 6 weeks bleomycin"}, "[3]": {"conditions": "60 mg/kg bid, Studies A and B combined"}}, "note": "“Also recorded” adds a separate entry of the source."}
{"smiles": "O[C@H]1CC[C@H](Nc2ncc3nc(Nc4c(F)cc(F)cc4F)n([C@H]4CCOC4)c3n2)CC1", "note": "[JNKi-1, 4-((9-((3S)-tetrahydro-3-furanyl)-8-((2,4,6-trifluorophenyl)amino)-9H-purin-2-yl)amino)-trans-cyclohexanol]", "values": [{"measurement": "dermal thickness, normalized to NaCl injections for 6 weeks = 100%", "setting": "[1]; 150 mg/kg BID for the last 3 weeks of 6 weeks bleomycin", "value": "127±4", "unit": "%"}, {"measurement": "accumulation of collagen (hydroxyproline assay)", "setting": "[1]; [2]", "value": "significantly reduced"}, {"measurement": "number of myofibroblasts, normalized to NaCl injections for 6 weeks = 100%", "setting": "[1]; [2]", "value": "171±31", "unit": "%"}, {"measurement": "regression of established fibrosis / dermal thickening (in words)", "setting": "[1]; treatment for the last 3 weeks of continuous bleomycin challenge", "value": "induced regression of dermal thickening; also recorded: induced regression of fibrosis"}, {"measurement": "wound healing (wound size) in words", "setting": "CD-IGS rats; 60 mg/kg b.i.d", "value": "delay in wound healing was observed"}, {"measurement": "delay in wound healing", "setting": "CD-IGS rats; 60 mg/kg b.i.d, n=3 studies", "value": 27, "unit": "%"}, {"measurement": "healing at day 14", "setting": "CD-IGS rats; 60 mg/kg bid", "value": "fully healed"}, {"measurement": "rats completely healed by day 10 (healing score)", "setting": "CD-IGS rats; [3]", "value": "5 out of 14"}, {"measurement": "rats with both incomplete re-epithelialization and collagen remodeling at day 10", "setting": "CD-IGS rats; [3]", "value": 3, "unit": "rats"}, {"measurement": "rats with incomplete new epidermis at day 10", "setting": "CD-IGS rats; [3]", "value": "two"}, {"measurement": "rats with only partial collagen remodeling at day 10", "setting": "CD-IGS rats; [3]", "value": 4, "unit": "rats"}, {"measurement": "neutrophils recruited into the wounds (MPO IHC) versus controls", "setting": "CD-IGS rats; 60 mg/kg, day 1 post wounding", "value": "did not affect inflammatory cell infiltration; also recorded: comparable"}, {"measurement": "myofibroblast migration into the wound gap (α-SMA IHC)", "setting": "CD-IGS rats; 60 mg/kg, day 5 post wounding", "value": "reduced myofibroblast migration; also recorded: few myofibroblasts migrating at the wound edges"}, {"measurement": "wound size versus vehicle", "setting": "CD-IGS rats; 30 or 10 mg/kg bid", "value": "no difference"}, {"measurement": "healing score versus vehicle control, day 10", "setting": "CD-IGS rats; Study C, 10 mg/kg", "value": "No significant effect"}, {"measurement": "rats with both incomplete re-epithelialization and collagen remodeling", "setting": "CD-IGS rats; Study C, 30 mg/kg, day 10", "value": "5 out of 8"}, {"measurement": "rats completely healed by day 10", "setting": "CD-IGS rats; Study C, 60 mg/kg", "value": "None"}, {"measurement": "healing score versus vehicle control, day 10", "setting": "CD-IGS rats; Study C, 60 and 30 mg/kg", "value": "significant delay in healing"}, {"measurement": "time of complete skin repair post wounding", "setting": "CD-IGS rats; all treated groups", "value": "≤ 14", "unit": "days"}]}
